Molecules are shown by their SMILES.

This passage reports absorption maximum results from the Deep4Chem optical property database.

The nature of this series: solvent given as SMILES.

`Nc1ccc(N2C(=O)c3ccc4c5ccc6c7c(ccc(c8ccc(c3c48)C2=O)c75)C(=O)NC6=O)cc1` displayed an absorption maximum (in CN(C)C=O) of 524 nm.

Regarding `Cn1c(/C=C/c2ccc(/C=C/c3nc4ccccc4[nH]3)cc2)[n+](C)c2ccccc21`, the absorption maximum reads like this: (in C1CCOC1) 363 nm; (in CC#N) 377 nm; (in CC(C)=O) 386 nm; (in CN(C)C=O) 389 nm; (in CO) 391 nm; (in CS(C)=O) 392 nm. The same molecule came in with an absorption maximum (in O) of 376 nm.

In turn, `CN(C)c1ccc(-n2c(-c3ccncc3)nc3ccccc32)cc1` came in with an absorption maximum (in CC#N) of 299 nm.

In the case of `Brc1ccc(-c2nc3sc4ccccc4c3s2)cc1`, the absorption maximum (in CS(C)=O) was found to be 353 nm.

`N#Cc1ccc(N)cc1` registered an absorption maximum (in C1CCCCC1) of 283 nm; an absorption maximum (in CC#N) of 272.85 nm; an absorption maximum (in CCCCCC) of 260.99 nm; an absorption maximum (in CCO) of 276 nm; an absorption maximum (in O) of 283 nm; an absorption maximum (in OCC(F)(F)F) of 264 nm.

Molecule `CCCCCCCCCCCCCCCCCCOc1ccc([B-]23NC(c4ccccc4)=Nc4cccc([n+]42)N=C(c2ccccc2)N3)cc1` yielded an absorption maximum (in ClCCl) of 431 nm.

With `COc1ccc(-c2ccc(-c3ccc(OC)cc3)cc2)cc1`, the absorption maximum (in C1CCCCC1) is given as 293 nm.

As to `COc1cc(OC)c2c(c1)C(=O)c1ccc(OC)cc1-2`, the absorption maximum was determined as 422 nm (in C1CCCCC1), 441 nm (in CC#N) and 442 nm (in CCO).

For the setting “in O=P(c1ccccc1)(c1ccccc1)c1ccccc1Oc1ccccc1P(=O)(c1ccccc1)c1ccccc1”, `N#Cc1c(-c2ccc(N(c3ccccc3)c3ccccc3)cc2)c(C#N)c(-c2ccc(N(c3ccccc3)c3ccccc3)cc2)c(C#N)c1-c1ccc(N(c2ccccc2)c2ccccc2)cc1` had an absorption maximum of 420 nm.

Under “in CCO”, `CCCCOc1c(C=C2N(C)c3ccccc3C2(C)C)c(=O)c1=S` came in with an absorption maximum of 500 nm.

For `Cc1c(C(=O)c2ccc3c4cccc5cccc(c6cccc2c63)c54)c2ccc3cccc4c5cccc6ccc1c(c65)c2c34`, the absorption maximum (in ClCCl) turned out to be 468 nm.

Where the note is “in ClC(Cl)Cl”, `CCCCn1c2ccc(-c3ccc(OC)cc3)cc2c2ccc3c4cc(-c5ccc(OC)cc5)ccc4n(CCCC)c3c21` yielded an absorption maximum of 338 nm.

As to `F[B-]1(F)OC(c2ccc(Br)cc2)=Cc2c3ccccc3c3ccccc3[n+]21`, the absorption maximum (in ClC(Cl)Cl) turned out to be 435 nm.

For the molecule `CCN(CC)c1ccc(-c2nc3c(nc2-c2ccc([B-](F)(c4c(C)cc(C)cc4C)c4c(C)cc(C)cc4C)cc2)c2ccccc2n3C)cc1`, where the note is “in C1CCOC1”, the absorption maximum amounted to 414.75 nm.

Where the note is “in C1CCOC1”, `CC(C)(C)c1cc2c3c(c1)-c1cccc4c1N(B3N1c3ccccc3Sc3cccc-2c31)c1ccccc1S4` had an absorption maximum of 381 nm.

In the case of `CCOC(=O)C1=C(C)NC2=C(C(=O)c3ccccc32)C1c1ccc(N(C)C)cc1` (stereo not given), the absorption maximum by setting is: (in C1CCOC1) 374 nm; (in C1COCCO1) 373 nm; (in CC#N) 379 nm; (in CCO) 395 nm; (in CN(C)C=O) 385 nm; (in CO) 389 nm. The absorption maximum is, setting by setting: (in CS(C)=O) 400 nm; (in ClC(Cl)(Cl)Cl) 371 nm; (in ClC(Cl)Cl) 383 nm; (in ClCCl) 387 nm.

Consider `CCCCc1ccc2c(c1)c1ccc3cccc4c3c1c1c2c2cccc3ccc5c6cc(CCCC)ccc6c4c1c5c32`, for which the absorption maximum (in ClCCl) came to 492 nm.

For the molecule `CCN(CC)c1ccc(/C=N/c2ccccc2/N=C/c2ccc(N(CC)CC)cc2O)c(O)c1`, the absorption maximum by setting is: (in CC#N) 442 nm; (in CN(C)C=O) 490 nm; (in ClCCl) 442 nm.

As to `COc1ccc(-c2c3ccc([nH]3)c3nc(c(-c4ccc([N+](=O)[O-])cc4)c4ccc([nH]4)c4ccc([nH]4)c(-c4ccc(OC)cc4)c4ccc2o4)C=C3)cc1`, the absorption maximum runs as follows: (in C1CCOC1) 446 nm; (in Cc1ccccc1) 448 nm; (in c1ccccc1) 448 nm.

`Cc1ccc(C#Cc2ccc3nc4ccc(C#Cc5ccc(C)cc5)cn4c(=O)c3c2)cc1` came in with an absorption maximum (in ClCCl) of 385 nm.

`CC[N+]1(CC)CN2C(=N1)C(C(=O)O)=Cc1cc(OC)c(OC)cc12` registered an absorption maximum (in O) of 392 nm.

Regarding `c1ccc(N(c2ccccc2)c2ccc(-c3ccc(-c4nc(-c5ccccn5)n(-c5ccccc5)n4)cc3)cc2)cc1`, the absorption maximum (in ClCCl) was 349 nm.

As to `O=C(O)C1=C(C(=O)O)C2=C[C@H]3c4ccccc4[C@]2(S1)c1ccccc13`, for the setting “in ClCCl”, the absorption maximum was determined as 410 nm.

Molecule `COc1cc(OC)c2cc(-c3ccc(-c4cc5c(OC)cc(OC)cc5oc4=O)cc3)c(=O)oc2c1` gave an absorption maximum (in ClC(Cl)Cl) of 372 nm.

`O=C1CC(c2ccc(Cl)cc2)c2c(c3ccccc3c3nc4ccccc4nc23)O1` (stereo not given) returned an absorption maximum (in ClC(Cl)Cl) of 410 nm.

Molecule `CCN(CC)c1ccc(-c2nc(Oc3ccc(-c4nc5cc([N+](=O)[O-])ccc5[nH]4)cc3)nc(Oc3ccc(-c4nc5cc([N+](=O)[O-])ccc5[nH]4)cc3)n2)cc1` yielded an absorption maximum (in CN(C)C=O) of 383 nm.

As to `CC1=[N+]2C(=C(c3ccccc3)c3c4ccccc4c(C)n3[B-]2(F)F)c2ccccc21`, the absorption maximum (in CC#N) is on record as 597 nm.

On to `COC(=O)/C=C/c1sc(-c2ccc(N(C)C)cc2)c(-c2cccnc2)c1N`, for which, under “in CC#N”, the absorption maximum amounted to 415 nm.

`CCN(CC)c1ccc(/C=N/c2cc3ccccc3cc2/N=C/c2ccc(N(CC)CC)cc2O)c(O)c1`: the absorption maximum is, setting by setting: (in CC#N) 403 nm; (in CN(C)C=O) 416 nm; (in ClCCl) 447 nm.

Molecule `CCCCc1cc(-c2cccc(COC)c2)oc1-c1cccc(-c2oc(-c3cccc(COC)c3)cc2CCCC)c1` came in with an absorption maximum (in ClC(Cl)Cl) of 334 nm.

Turning to `CNC(=O)[C@H](C)NC(=O)c1cccc2c1C#Cc1c(NC(=O)[C@@H](NC(C)=O)C(C)C)cccc1OCCCO2`, the absorption maximum runs as follows: (in CC#N) 324 nm; (in ClCCl) 336 nm.

Under “in ClCCl”, `CC1=C(I)C(C)=[N+]2C1=C(c1c(-c3ccccn3)nc3ccccn13)c1c(C)cc(C)n1[B-]2(F)F` yielded an absorption maximum of 534 nm.

As for `O=C1C2=C3c4ccsc4C=CN3C(=O)C2=C2c3ccsc3C=CN12`, the absorption maximum is, setting by setting: (in CN(C)C=O) 575 nm; (in ClC(Cl)Cl) 575 nm.

As for `c1ccc(N(c2ccccc2)c2cc3c4c(c2)N(c2ccccc2)c2cc5c(cc2B4c2ccccc2N3c2ccccc2)B2c3ccccc3N(c3ccccc3)c3cc(N(c4ccccc4)c4ccccc4)cc(c32)N5c2ccccc2)cc1`, the absorption maximum (in Cc1ccccc1) is given as 457 nm.

In the case of `Cc1cc(C)n2c1C=[N+]1[N+](=C3C=NC=CN3[B-]1(F)F)[B-]2(F)F`, the absorption maximum (in ClCCl) is reported as 467 nm.

Regarding `c1ccc(-c2nc(-c3ccccc3)n3ccccc23)cc1`, the absorption maximum by setting is: (in C1CCCCC1) 302 nm; (in CC#N) 305 nm; (in CO) 301 nm; (in ClC(Cl)Cl) 308 nm; (in ClCCl) 385 nm; (in O) 305 nm.

Consider `CCCCCCCCC1(CCCCCCCC)c2cc(-c3ccc([N+](=O)[O-])cc3)ccc2-c2ccc(-c3ccc([N+](=O)[O-])cc3)cc21`, for which the absorption maximum is listed as 357 nm (in C1CCCCC1); 368 nm (in CCO); 380 nm (in CN(C)C=O); 382 nm (in CS(C)=O); 365 nm (in Cc1ccccc1); 373 nm (in ClC(Cl)Cl).

On to `C(=C\c1ccc(-c2ccncc2)cc1)/c1ccc(-c2ccncc2)cc1`, for which, where the note is “in ClCCl”, the absorption maximum was determined as 345 nm.

Where the note is “in ClCCl”, `CCN(CC)c1ccc2c(-c3ccccc3C(=O)O)c3c([o+]c2c1)/C(=C/c1ccc(N(C)C)s1)CCC3` registered an absorption maximum of 733 nm.

For the molecule `CCCC1=Cc2nc1ccc1[nH]c(cc1CCC)c1nc(c(NC(=O)CCCC(=O)O)cc3[nH]c2cc3CCC)C(CCC)=C1`, the absorption maximum (in ClCCl) is given as 636 nm.

Regarding `COc1ccc(/C=C(\C#N)c2nc(-c3ccc(Cl)cc3)cs2)cc1`, where the note is “in CC#N”, the absorption maximum was 373 nm.

Consider `CCCCOc1ccc(-c2cc3c(o2)c(-c2ccc(OCCCC)cc2)c2n3[B-](F)(F)[N+]3=Cc4c(-c5ccc(OCCCC)cc5)c5oc(-c6ccc(OCCCC)cc6)cc5n4[B-](F)(F)[N+]3=C2)cc1`, for which the absorption maximum is, setting by setting: (in C1CCOC1) 619 nm; (in CN(C)C=O) 620 nm; (in CS(C)=O) 625 nm; (in Cc1ccccc1) 626 nm; (in ClC(Cl)Cl) 624 nm; (in ClCCl) 622 nm.

For the setting “in CO”, `CCOC(=O)CCCCCn1c2ccc(Cl)cc2c(=O)c2cc3c(cc21)c(=O)c1cc(Cl)ccc1n3CCCCCC(=O)OCC` gave an absorption maximum of 534 nm.

For the molecule `COC(=O)C(NC(=O)OC(C)(C)C)c1ccc2oc(-c3ccc(O)cc3O)nc2c1` (stereo not given), the absorption maximum was found to be 336 nm (in CC1CCCCC1), 320 nm (in CC#N) and 321 nm (in CO).

As to `COc1ccc(-c2c3cc4ccccc4cc3c(C#Cc3ccccc3)c3cc4ccccc4cc23)cc1`, the absorption maximum (in ClCCl) is 635 nm.

Where the note is “in ClC(Cl)Cl”, `CCN(CC)c1ccc2cc(-c3cn4cc(OC)ccc4n3)c(=O)oc2c1` showed an absorption maximum of 434 nm.

Where the note is “in Cc1ccccc1”, `CCOCCC1=Cc2nc1ccc1[nH]c(cc1CCOCC)c1nc(ccc3[nH]c2cc3CCOCC)C(CCOCC)=C1` yielded an absorption maximum of 638 nm.

Turning to `CCCCCCc1ccc(-n2c3[n+](c4c5ccccc5c5ccccc5c42)[B-](C)(C)c2cc(N(c4ccccc4)c4ccccc4)ccc2-3)cc1`, the absorption maximum runs as follows: (in C1CCOC1) 393 nm; (in CC#N) 390 nm; (in Cc1ccccc1) 397 nm; (in ClCCl) 392 nm.

In turn, `N#Cc1cc(-n2c3ccccc3c3cc(Br)ccc32)c(-n2c3ccccc3c3cc(Br)ccc32)cc1C#N` returned an absorption maximum (in C1CCOC1) of 366 nm.

On to `c1ccc(-c2nc(-c3ccccc3)nc(-c3ccc(-n4c5ccc(-n6c7ccccc7c7ccccc76)cc5c5cc(-n6c7ccccc7c7ccccc76)ccc54)cc3)n2)cc1`, for which the absorption maximum (in Cc1ccccc1) is 368 nm.
